The target of one test is T1, PDGFRb (Homo sapiens, UniProt P09619).
T1 construct: DNA label for qPCR read-out (T7 phage fusion or DNA tag); purchased Eurofins DiscoverX Corporation; host or cells: T7 phage in E. coli (BL21-derived) or HEK-293
Briefly: KINOMEscan competition binding, PDGFRb. The following applies: 10 µM compound; for remaining binding at 10 µM: lower = stronger binding, read-out: PDGFRb %Ctrl @ 10000nM (POC). On the procedure:
(§1) The KINOMEscan screening platform (Eurofins DiscoverX Corporation) was performed using active site-directed competition binding assay to quantitatively measure interactions between BK40143 and BK40197 and more than 450 human kinases and disease relevant mutant variants. […] Screening “hits” are identified by measuring the amount of kinase captured in test (BK40143 and BK40197) versus control samples by using a quantitative and ultra-sensitive qRT-PCR method that detects the associated DNA label. BK40143 and BK40197 were screened at 10 µM concentration, and results for primary screen binding interactions were reported as “% Ctrl” (POC), where lower numbers indicate stronger hits and calculated as follows: [test compound signal−positive control signal/negative control signal−positive control signal]×100
(§2) negative control = DMSO (100% Ctrl)
(§3) positive control = control compound (0% Ctrl)
(§4) Based on screening data from of profiled compounds, a proportional relationship between primary screening results and corresponding compound/target affinities can be described as binding constants (Kd values) for the indicated ranges of POC values with tighter binding (higher affinity) interactions associated with lower POC values and weaker binding (lower affinity) associated with higher POC values. Briefly, kinase-tagged T7 phage strains were grown in parallel in 24-well blocks in an E. coli host derived from the BL21 strain. E. coli were grown to log-phase and infected with T7 phage from a frozen stock (multiplicity of infection = 0.4) and incubated with shaking at 32°C until lysis (90–150 min). The lysates were centrifuged (6,000g) and filtered (0.2 μm) to remove cell debris. The remaining kinases were produced in HEK-293 cells and subsequently tagged with DNA for qRT-PCR detection. Streptavidin-coated magnetic beads were treated with biotinylated small molecule ligands for 30 min at RT to generate affinity resins for kinase assays. The liganded beads were blocked with excess biotin and washed with blocking buffer (1% BSA, 0.05% Tween 20, 1 mM DTT; SeaBlock [Pierce]) to remove unbound ligand and to reduce non-specific phage binding. Binding reactions were assembled by combining kinases, liganded affinity beads, and test compounds in 1x binding buffer (20% 0.17x PBS, 0.05% Tween 20, 6 mM DTT; SeaBlock). Test compounds were prepared as 100x stocks in 100% DMSO and directly diluted into the assay. All reactions were performed in polypropylene 384-well plates in a final volume of 0.02 ml. The assay plates were incubated at RT with shaking for 1 h and the affinity beads were washed with wash buffer (1x PBS, 0.05% Tween 20). […] The kinase concentration in the eluates was measured by qRT-PCR.

A further test addresses T2, KIT (V559D) (Homo sapiens, UniProt P10721, V559D).
T2 construct: DNA label for qPCR read-out (T7 phage fusion or DNA tag); purchased Eurofins DiscoverX Corporation; host or cells: T7 phage in E. coli (BL21-derived) or HEK-293
Briefly: KINOMEscan competition binding, KIT (V559D). The following applies: 10 µM compound; for remaining binding at 10 µM: lower = stronger binding, read-out: KIT (V559D) %Ctrl @ 10000nM (POC). On the procedure: as §1, §2, §3, §4

Another test has as its target T3, MTOR (Homo sapiens, UniProt P42345).
T3 construct: DNA label for qPCR read-out (T7 phage fusion or DNA tag); purchased Eurofins DiscoverX Corporation; host or cells: T7 phage in E. coli (BL21-derived) or HEK-293
Put plainly: KINOMEscan competition binding, MTOR. The following applies: 10 µM compound; for remaining binding at 10 µM: lower = stronger binding, read-out: MTOR %Ctrl @ 10000nM (POC). On the procedure:
as §1, §2, §3, §4

The subject of test [1] is IBA1+ microglia of TgAPP mice. Briefly: IBA1 staining and microglial morphological analysis (Imaris). In kind it is in vivo, mouse. The following applies: BK40143 5 mg/kg, BK40197 45 mg/kg, vs DMSO. On the procedure:
Staining for amyloid-beta and microglia was performed on left brain hemispheres collected from treated and untreated mice. Brains were cryoprotected with 30% sucrose and sectioned at 30 μm on a cryostat. Sections were then treated with an anti-amyloid beta (6E10, cat. #803001; BioLegend) or anti-IBA1 (cat. # 018-28523; Wako Chemicals) primary followed by either an AlexaFluor secondary (Thermo Fisher Scientific) and DAPI mounting medium (Vector Labs) or a biotinylated secondary and 3, 3′ diaminobenzidine chromogen substrate. Slides were imaged on either a Leica DMi8 light microscope or a Zeiss LSM 800 confocal microscope.
63x z-stack images (0.19 μm intervals) of IBA1 stained microglia from treated and untreated mice were collected on a Zeiss LSM confocal microscope. 3D images were then analyzed using the “surfaces” plug-in in Imaris 10.0 to ascertain cell-surface area. Individual microglial surface areas were calculated in the advanced statistics tab of Imaris.

Test [2] concerns microglial PAR2-tryptase interactions in TgAPP mice. Put plainly: Proximity ligation assay PAR2-tryptase. In kind it is in vivo, mouse. The following applies: vs DMSO. On the procedure: Slides containing two consecutive brain slices were blocked in Duolink blocking solution for 1 h in a slide chamber containing water at 37°C. Blocking solution was then removed and PAR2 (1:250) and tryptase (1:250) primary antibodies were added at the concentrations specified above and incubated at 4°C overnight. The next day, primaries were removed and slides were washed twice for 5 min in wash buffer before addition of plus and minus probes for incubation at 37°C in a humid chamber for 1 h. Slides were then washed again twice for 5 min in wash buffer before addition of ligation buffer for incubation at 37°C in a humid chamber for 30 min. Next, slides were washed twice for 5 min in wash buffer, and polymerase was added for incubation at 37°C in a humid chamber for 100 min. Finally, slides were washed twice for 10 min in wash buffer and mounted using DAPI mounting medium and a glass coverslip. Slides were imaged on a Leica Dmi8 light microscope.

The target of a further test is T4, KIT (Homo sapiens, UniProt P10721).
T4 construct: DNA label for qPCR read-out (T7 phage fusion or DNA tag); purchased Eurofins DiscoverX Corporation; host or cells: T7 phage in E. coli (BL21-derived) or HEK-293
Put plainly: KINOMEscan competition binding, KIT. The following applies: 10 µM compound; for remaining binding at 10 µM: lower = stronger binding, read-out: KIT %Ctrl @ 10000nM (POC). On the procedure:
as §1, §2, §3, §4

For orientation: inhibition means the share of the control response that was lost under treatment.

T4 sequence (P10721 26-976): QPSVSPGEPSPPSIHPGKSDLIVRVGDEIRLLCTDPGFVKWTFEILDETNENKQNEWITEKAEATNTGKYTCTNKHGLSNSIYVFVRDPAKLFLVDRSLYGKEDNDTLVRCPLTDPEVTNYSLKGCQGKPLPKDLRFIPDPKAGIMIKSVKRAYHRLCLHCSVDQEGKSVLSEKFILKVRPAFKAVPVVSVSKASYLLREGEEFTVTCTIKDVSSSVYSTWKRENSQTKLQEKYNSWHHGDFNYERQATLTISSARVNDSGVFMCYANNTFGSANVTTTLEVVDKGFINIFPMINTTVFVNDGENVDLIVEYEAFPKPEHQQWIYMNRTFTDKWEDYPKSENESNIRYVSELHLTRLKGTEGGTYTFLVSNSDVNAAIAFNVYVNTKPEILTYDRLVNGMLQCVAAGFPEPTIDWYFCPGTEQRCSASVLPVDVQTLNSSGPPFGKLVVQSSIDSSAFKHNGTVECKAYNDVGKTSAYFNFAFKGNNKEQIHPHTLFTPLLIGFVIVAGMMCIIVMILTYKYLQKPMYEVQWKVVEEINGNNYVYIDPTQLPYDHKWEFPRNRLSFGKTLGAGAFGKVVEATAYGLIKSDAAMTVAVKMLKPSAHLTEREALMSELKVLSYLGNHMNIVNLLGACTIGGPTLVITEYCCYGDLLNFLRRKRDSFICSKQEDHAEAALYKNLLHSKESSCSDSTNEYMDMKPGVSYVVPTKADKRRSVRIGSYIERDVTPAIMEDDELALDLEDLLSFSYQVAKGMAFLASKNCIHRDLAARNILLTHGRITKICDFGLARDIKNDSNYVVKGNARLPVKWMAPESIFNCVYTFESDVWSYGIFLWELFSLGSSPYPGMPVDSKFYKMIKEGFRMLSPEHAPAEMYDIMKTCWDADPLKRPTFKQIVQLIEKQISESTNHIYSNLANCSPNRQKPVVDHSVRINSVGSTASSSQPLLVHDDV
T1 sequence (P09619 33-1106): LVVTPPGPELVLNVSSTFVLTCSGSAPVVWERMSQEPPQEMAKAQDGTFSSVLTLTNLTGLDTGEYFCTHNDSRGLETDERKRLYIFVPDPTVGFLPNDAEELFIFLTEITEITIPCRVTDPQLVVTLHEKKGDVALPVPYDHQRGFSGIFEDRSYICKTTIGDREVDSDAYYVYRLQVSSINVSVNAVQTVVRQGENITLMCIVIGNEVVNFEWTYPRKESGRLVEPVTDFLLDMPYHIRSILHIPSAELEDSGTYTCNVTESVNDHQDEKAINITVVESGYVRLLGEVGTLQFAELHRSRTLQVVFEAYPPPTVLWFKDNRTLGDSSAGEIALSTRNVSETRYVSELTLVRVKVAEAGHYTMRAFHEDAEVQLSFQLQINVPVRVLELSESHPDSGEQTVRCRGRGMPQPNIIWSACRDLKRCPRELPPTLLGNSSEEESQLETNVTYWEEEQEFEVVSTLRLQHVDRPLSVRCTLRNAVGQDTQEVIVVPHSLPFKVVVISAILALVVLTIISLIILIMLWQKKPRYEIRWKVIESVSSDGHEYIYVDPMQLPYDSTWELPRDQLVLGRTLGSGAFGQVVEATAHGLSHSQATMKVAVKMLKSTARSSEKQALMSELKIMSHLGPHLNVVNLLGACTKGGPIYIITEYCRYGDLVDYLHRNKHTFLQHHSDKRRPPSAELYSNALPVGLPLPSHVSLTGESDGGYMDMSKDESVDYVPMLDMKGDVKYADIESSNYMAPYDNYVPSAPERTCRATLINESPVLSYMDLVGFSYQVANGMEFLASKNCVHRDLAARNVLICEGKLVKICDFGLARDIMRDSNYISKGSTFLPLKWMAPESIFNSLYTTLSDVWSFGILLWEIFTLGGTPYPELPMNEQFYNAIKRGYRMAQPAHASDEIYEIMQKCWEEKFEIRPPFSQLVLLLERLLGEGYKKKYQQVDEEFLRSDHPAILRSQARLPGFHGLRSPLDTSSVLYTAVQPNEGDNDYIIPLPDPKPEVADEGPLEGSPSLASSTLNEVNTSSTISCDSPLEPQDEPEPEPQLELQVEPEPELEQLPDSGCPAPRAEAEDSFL
T2 sequence (P10721 26-976 V559D): as the sequence (P10721 26-976) above, with V534D counted along it

`Cc1cccc(-c2cc3nccc(Nc4ccccc4)c3s2)c1` [BK40143]: the inhibition at 10 µM was determined as 99.9% on PDGFRb, 99.8% on KIT (V559D), 0% on MTOR and 100% at KIT. For the same molecule, the remaining binding at 10 µM was 0.1% on PDGFRb, 0.25% on KIT (V559D), 100% on MTOR and 0% on KIT. Also, the “microglial activation (IBA1 staining)” value in test [1] is “significant reduction in microglial activation”. Moreover, in test [1], the “surface area of microglia (Imaris)” value is “significantly reduced surface area of microglia”. Also, the “mast cell tryptase / microglial PAR2-tryptase interactions (proximity ligation)” value in test [2] is “reduced mast cell mediators such as tryptase”.
`Cc1cccc(-c2cc3nccc(N4CCOCC4)c3s2)c1` [BK40197]: the inhibition at 10 µM on PDGFRb amounted to 98.7%; at KIT (V559D) it was 99.7%; on MTOR it was 90.7%; at KIT, 99.7%. The remaining binding at 10 µM is 1.3% on PDGFRb, 0.35% at KIT (V559D), 9.3% at MTOR and 0.3% at KIT. Moreover, in test [1], the “microglial activation (IBA1 staining)” value was “significant reduction in microglial activation”. In addition, in test [1], the “surface area of microglia (Imaris)” value is reported as “significantly reduced surface area of microglia”. Moreover, in test [2], the “mast cell tryptase / microglial PAR2-tryptase interactions (proximity ligation)” value was “reduced mast cell mediators such as tryptase”.

The record behind these values is paper PMC11249953, “c-KIT inhibitors reduce pathology and improve behavior in the Tg(SwDI) model of Alzheimer’s disease” (Life Science Alliance, 2024).
